Row | melting point | SMILES
1 | 222 to 224 °C | Cc1ccc(C(=O)Nc2cccc(C(F)(F)F)c2)cc1NC(=O)c1cnc2ccnn2c1 [Example 1, Pyrazolo[1,5-a]pyrimidine-6-carboxylic acid[2-methyl-5-(3-trifluoromethyl-phenylcarbamoyl)-phenyl]-amide]
2 | 239 to 241 °C | Cc1ccc(NC(=O)c2cccc(C(F)(F)F)c2)cc1NC(=O)c1cnc2ccnn2c1 [Example 2, Pyrazolo[1,5-a]pyrimidine-6-carboxylic acid[2-methyl-5-(3-trifluoromethyl-benzoylamino)-phenyl]-amide]
3 | 259 to 263 °C | Cc1ccc(C(=O)Nc2cccc(C(F)(F)F)c2)cc1NC(=O)C1=CNc2ccnn2C1 [Example 3, 4,7-Dihydro-pyrazolo[1,5-a]pyrimidine-6-carboxylic acid [2-methyl-5-(3-trifluoromethyl-phenylcarbamoyl)-phenyl]-amide]
4 | 227 to 229 °C | Cc1cccc(C)c1NC(=O)c1cnc2c(-c3cccc(N4CCN(C)CC4)c3)cnn2c1 [Example 4, 3-[3-(4-Methyl-piperazin-1-yl)-phenyl]-pyrazolo[1,5-a]pyrimidine-6-carboxylic acid(2,6-dimethyl-phenyl)-amide]
5 | 230 to 232 °C | COc1ccc(-c2cnn3cc(C(=O)Nc4c(C)cccc4C)cnc23)cc1OC [Example 5, 3-(3,4-Dimethoxy-phenyl)-pyrazolo[1,5-a]pyrimidine-6-carboxylic acid (2,6-dimethylphenyl)-amide]
6 | 267 to 269 °C | Cc1ccc(NC(=O)c2ccc(F)c(C(F)(F)F)c2)cc1NC(=O)c1cnc2ccnn2c1 [Example 6, Pyrazolo[1,5-a]pyrimidine-6-carboxylic acid[5-(4-fluoro-3-trifluoromthyl-benzoylamino)-2-methyl-phenyl]-amide]
7 | 256 to 258 °C | COc1ccc(C(=O)Nc2ccc(C)c(NC(=O)c3cnc4ccnn4c3)c2)cc1C(F)(F)F [Example 7, Pyrazolo[1,5-a]pyrimidine-6-carboxylic acid[5-(4-methoxy-3-trifluoromethyl-benzoylamino)-2-methyl-phenyl]-amide]

Reference: patent US20100069395A1, “Pyrazolo[1,5-a]pyrimidine-3-carboxylic acid compounds as protein kinase inhibitors” (priority 2006, published 2010)
